pEC50, pIC50: −log10 of the molar value. Read-outs that look alike come from different tables or passages of the source. Positions of bridges follow the written chain, without caps; N, C: chain ends. Non-standard residues stand in square brackets, D forms with d. Residues, ends and D or L forms follow the SMILES beside them. ξ: configuration not given here. NMeNle = CCCC[C@H](NC)C(=O)O; NMeA = CN[C@@H](C)C(=O)O; ξP = O=C(O)C1CCCN1; Sar = CNCC(=O)O
Experiments:
Human PD-L1/PD-1 = target: T1, Human PD-L1/PD-1 (Homo sapiens, UniProt Q9NZQ7); assay: HTRF PD-1-Ig/PD-L1-His binding assay (human PD-L1); conditions: read-out: HTRF Human PD-L1/PD-1 Binding Assay IC50
T1 construct: made in house; host or cells: HEK293T
Method in brief: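 Soluble PD-1-Ig binding to PD-L1-His measured by HTRF in dPBS with 0.1% BSA and 0.05% Tween-20. Detection used europium cryptate anti-Ig antibody (1 nM final) and APC anti-His antibody (20 nM final) added on top of the binding reaction.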

Hu PD-L1/PD-1 = Hu PD-L1/PD-1 (Homo sapiens, UniProt Q9NZQ7); assay: Cell binding assay Hu PD-L1/PD-1 (Tables 11-13, cell line not given); assay type: cell-based; conditions: Table 11
Method in brief: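 Three formats. In the L2987 imaging assay, natively PD-L1-expressing cells received inhibitor and PE-PD-1-Ig for 1 h at 37 °C, followed by fixation and nuclear Hoechst staining. In the flow-cytometry assays, LK35.2 cells overexpressing hPD-L1 were pre-treated 15 min with inhibitor, then bound 2 nM PE-PD-1-Ig for 1 h at RT in RPMI/2% FCS, while Jurkat-PD-1 cells bound PE-PD-L1-Ig.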

CMV-specific T cells = conditions: read-out: EC50, IFNγ secretion by CMV-specific T cells; FIG. 10A-C

T1 sequence (Q9NZQ7 with tags, fused parts or gaps): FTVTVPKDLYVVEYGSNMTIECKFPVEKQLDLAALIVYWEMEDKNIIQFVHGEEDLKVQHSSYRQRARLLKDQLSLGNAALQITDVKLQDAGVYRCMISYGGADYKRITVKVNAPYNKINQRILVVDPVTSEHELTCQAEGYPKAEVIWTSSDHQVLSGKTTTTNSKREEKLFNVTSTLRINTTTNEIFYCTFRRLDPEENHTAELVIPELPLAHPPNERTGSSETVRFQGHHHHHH
Chain of Hu PD-L1/PD-1 (Q9NZQ7 19-290): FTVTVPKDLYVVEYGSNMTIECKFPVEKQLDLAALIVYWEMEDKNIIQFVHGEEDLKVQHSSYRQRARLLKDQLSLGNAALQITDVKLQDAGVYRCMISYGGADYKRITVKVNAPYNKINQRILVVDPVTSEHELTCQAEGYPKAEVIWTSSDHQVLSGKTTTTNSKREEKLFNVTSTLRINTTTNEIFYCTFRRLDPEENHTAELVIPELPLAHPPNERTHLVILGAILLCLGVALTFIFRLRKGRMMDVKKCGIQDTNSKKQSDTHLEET

Structure (SMILES) | pIC50 (Human PD-L1/PD-1; Table 6) | pIC50 (Human PD-L1/PD-1; Table 9, Compound No. 71 variant macrocyclic peptides) | pIC50 (Hu PD-L1/PD-1) | pEC50 (CMV-specific T cells) | pIC50 (Human PD-L1/PD-1; Table 7, Compound No. 99 variant macrocyclic peptides) | pIC50 (Human PD-L1/PD-1; Table 8, Compound No. 1 variant macrocyclic peptides)
CCCC[C@H]1C(=O)N(C)CC(=O)N[C@@H](CC(=O)O)C(=O)N[C@@H](C(C)C)C(=O)N(C)[C@@H](Cc2ccccc2)C(=O)N[C@@H](Cc2ccc(O)cc2)C(=O)N(C)CC(=O)N[C@@H](Cc2c[nH]c3ccccc23)C(=O)N[C@@H](Cc2ccc(O)cc2)C(=O)N[C@@H](CC(C)C)C(=O)N[C@H](C(=O)NCC(N)=O)CSCC(=O)N[C@@H](Cc2ccccc2)C(=O)N(C)[C@@H](Cc2ccccc2)C(=O)N1C [Compound No. 71] (HELM PEPTIDE1{[O=C(C[*:3])[*:2]].F.[meF].[CCCC[C@@H](C(=O)[*:2])N(C)[*:1]].[Sar].D.V.[meF].Y.[Sar].W.Y.L.C.G.[am]}$PEPTIDE1,PEPTIDE1,1:R3-14:R3$$$V2.0) | 8.15 | 8.15 | 8.00 | 6.52 | – | –
CC[C@H](C)[C@@H]1NC(=O)[C@H](CC(C)C)NC(=O)[C@H](Cc2ccccc2)NC(=O)CSC[C@@H](C(=O)NCC(N)=O)NC(=O)[C@H](CCCNC(=N)N)NC(=O)[C@H](Cc2ccccc2)NC(=O)[C@H](C(C)C)NC(=O)[C@H](CCCNC(=N)N)NC(=O)[C@H](CC(=O)O)NC(=O)[C@H](CCCNC(=N)N)NC(=O)[C@H]([C@@H](C)CC)NC(=O)[C@H](C(C)C)NC1=O [Compound No. 99] (HELM PEPTIDE1{[O=C(C[*:3])[*:2]].F.L.I.V.I.R.D.R.V.F.R.C.G.[am]}$PEPTIDE1,PEPTIDE1,1:R3-13:R3$$$V2.0) | 6.82 | – | – | < 5.00 | 6.82 | –
CCCC[C@H]1C(=O)N(C)[C@@H](CCCC)C(=O)N[C@@H](CC(C)C)C(=O)N[C@H](C(=O)NCC(N)=O)CSCC(=O)N[C@@H](Cc2ccccc2)C(=O)N(C)[C@@H](C)C(=O)N[C@@H](CC(N)=O)C(=O)N2CCCC2C(=O)N[C@@H](Cc2cnc[nH]2)C(=O)N[C@@H](Cc2c[nH]cn2)C(=O)N[C@@H](CO)C(=O)N[C@@H](Cc2c[nH]c3ccccc23)C(=O)N[C@@H](CCCNC(=N)N)C(=O)N[C@@H](Cc2c[nH]c3ccccc23)C(=O)N1C (stereo partly drawn) [Compound No. 2] ({CH2CO}-F[NMeA]N[ξP]HHSWRW[NMeNle][NMeNle]LCG-NH2; thioether N-14) | – | – | 7.37 | 6.40 | – | –
CCCC[C@H]1C(=O)N(C)[C@@H](CCCC)C(=O)N[C@@H](CCCNC(=N)N)C(=O)N[C@H](C(=O)NCC(N)=O)CSCC(=O)N[C@@H](Cc2ccccc2)C(=O)N(C)[C@@H](C)C(=O)N[C@@H](CC(N)=O)C(=O)N2CCCC2C(=O)N[C@@H](Cc2cnc[nH]2)C(=O)N[C@@H](CC(C)C)C(=O)N(C)CC(=O)N[C@@H](Cc2c[nH]c3ccccc23)C(=O)N[C@@H](CO)C(=O)N[C@@H](Cc2c[nH]c3ccccc23)C(=O)N1C (stereo partly drawn) [Compound No. 1] ({CH2CO}-F[NMeA]N[ξP]HL[Sar]WSW[NMeNle][NMeNle]RCG-NH2; thioether N-14) | 8.05 | – | – | 6.40 | – | 8.05
